In US20220409696A1, “Heparin-Associated Polypeptides and Uses Thereof” (Juvena Therapeutics, Inc., priority 2021, published 2022):

Experiments:
[1] = molecular target: Insulin Degrading Enzyme (IDE) (Homo sapiens, UniProt P14735); settings: Malito et al. Cell Mol Life Sci. 2008; read-out: affinity of IDE for IGF2 as a substrate; cited from earlier work
DM1 human myoblast cells = assay: Fusion (% eMyHC area) of DM1 human myoblast; type: cell-based; settings: 96 h for fusion
Experimental: FIG. 7A Bar graph of % EdU+ human myoblast (person) and FIG. 7B % area MyHC in response to IGF2. Myoblast were cultured 72 h for proliferation and 96 h for fusion in the presence of indicated factor. Mean∓S.D. Mean∓SD. Significant p-values (EdU: Vehicle˜IGF2: 6.8E-3, % eMyHC Area: Vehicle˜IGF2: 1.9E-4) (*p<0.05 by Students Two-Tailed T-test, n=3−6).
IGF2 was tested individually for its ability to promote proliferation and/or fusion of human muscle progenitor cells from an individual with myotonic dystrophy type 1 (hMD)—a muscular dystrophy caused by mutations in the DMPK1 gene. […] After 72 or 96 hours, cells were pulsed for 2-5 hours with EdU (30 uM), ethanol fixed, stained with Hoescht 3342, immunostained for proliferation—as measured by the percent of cells staining positive for EdU (% EdU)-, and immunostained for differentiation—as measured by the increase in cellular area staining positive for embryonic myosin heavy chain (% eMyHC) relative to the negative controls, which received media and vehicle only. Wells were imaged on a Keyence BZ-100 at 4×, the images quantified in Cell Profiler, and the statistics were computed in R. Additionally, RNA was extracted from myoblast and select transcript abundances quantified by qPCR. […]

human myoblast cells = assay: Human myoblast differentiation (% eMyHC area), IGF2 and/or sodium butyrate; type: cell-based; settings: IGF2 0.015 ug/mL, 96 h (FIG. 3B/3C)
Experimental: Human myoblast cells were treated with either PBS (vehicle), IGF2 (15 ng/mL), sodium butyrate, or IGF2 and sodium butyrate. Fresh media was added every 24 hours. After 96 hours, cells were pulsed for 2-5 hours with EdU (30 uM), ethanol fixed, stained with Hoescht 3342, immunostained for proliferation—as measured by the percent of cells staining positive for EdU (% EdU)-, and immunostained for differentiation—as measured by the increase in cellular area staining positive for embryonic myosin heavy chain (% eMyHC) relative to the negative controls, which received media and vehicle only. The total area of eMyHc positive cells was analyzed, and treated cells were compared to cells treated with the vehicle alone. […] Significance was determined by a p-value less than 0.05 by the one-way ANOVA Tukey Honest Significant Difference test.
FIG. 3C Bar graph quantitation of % Area eMyHC+ human myoblast in response to indicated treatment compared to IGF2 (15 ng/mL). Myoblast were cultured 96 h in the presence of IGF2 at indicated dose. Fresh media and IGF2 was added every 24 h.
Human myoblast cells were treated with either PBS (vehicle), IGF2 (15 ng/mL), sodium butyrate, or IGF2 and sodium butyrate. Fresh media was added every 24 hours. After 48 hours, cells were pulsed for 2-5 hours with EdU (30 uM), ethanol fixed, stained with Hoescht 3342, immunostained for proliferation […] as measured by the percent of cells staining positive for EdU (% EdU)-, and immunostained for differentiation—as measured by the increase in cellular area staining positive for embryonic myosin heavy chain (% eMyHC) relative to the negative controls, which received media and vehicle only.
Significance was determined by a p-value less than 0.05 by the one-way ANOVA Tukey Honest Significant Difference test.

[2] = Pharmacokinetics after intravenous injection in mice; type: in vivo; settings: mice 10-12 weeks old, dose 10 mg/kg (HSA-IGF2R61A), 600 ug/kg (IGF2), Non-Compartment Analysis
Experimental: Murine pharmacokinetics (PK) represents the absorption, distribution, metabolism, and elimination of drugs from the body. The pharmacokinetic profile of the therapeutic polypeptides were determined in mice (10-12 weeks old). Mice were fed ad libitum and housed under controlled conditions of lighting (12-hour light/12-hour dark) and temperature (22-24° C.). Mice were allowed to acclimate for 3 days prior to the initiation of the experiment. Intravenous (IV) injection in 10-12 weeks old mice. Engineered mitogenic polypeptides concentrations in the samples were measured by ELISA. Various pharmacokinetics will be calculated as well as the absorption/elimination dynamics following different routes of administration.

DM1 human myoblast = assay: Gene expression fold change in DM1 human myoblast; type: cell-based; settings: IGF2 200 ng/mL
Experimental: Myoblasts were cultured 48 h in the presence of factors (BMP7 50 ng/mL, Butyrate 100 nM, IGF2 200 ng/mL).
Myoblasts were cultured 96 h in the presence of factors (IGF2 200 ng/mL). […] Myoblasts were cultured 48 h in the presence of factors (IGF2 200 ng/mL).
RNA was isolated from each well (RNeasy Mini Kit, Qiagen) and cDNA was obtained by reverse-transcription (High Capacity Reverse Transcription Kit, Thermo Fisher Scientific). Real-time quantitative PCR was performed using QuantStudio3 (Thermo Fisher).
IGF2 was tested individually for its ability to promote proliferation and/or fusion of human muscle progenitor cells from an individual with myotonic dystrophy type 1 (hMD)—a muscular dystrophy caused by mutations in the DMPK1 gene. The effect of IGF2 on myogenic activity was assayed in biological triplicate across a range of concentrations centered around expected physiological levels by adding each factor to hMD myoblasts for 72 hours with daily media changes (DMEM+2% horse serum) and a second pulse of factors at the first media change. After 72 or 96 hours, cells were pulsed for 2-5 hours with EdU (30 uM), ethanol fixed, stained with Hoescht 3342, immunostained for proliferation—as measured by the percent of cells staining positive for EdU (% EdU)-, and immunostained for differentiation—as measured by the increase in cellular area staining positive for embryonic myosin heavy chain (% eMyHC) relative to the negative controls, which received media and vehicle only. Wells were imaged on a Keyence BZ-100 at 4×, the images quantified in Cell Profiler, and the statistics were computed in R. Additionally, RNA was extracted from myoblast and select transcript abundances quantified by qPCR.

[3] = 48 h, BMP7 50 ng/mL, Butyrate 100 nM

Substance: IGF2: Human IGF2 polypeptide, amino acids 25 to 91 of SEQ ID NO. 32 (i.e. SEQ ID NO. 29)
- Kd [1]: ~100 nM
- % eMyHC area (DM1 human myoblast cells): 5.49%
- % eMyHC (human myoblast cells): 10.843%
- Half-life [2]: 2.85 h
- ATP1B1 expression fold change compared to FM (vehicle) (DM1 human myoblast; 48 h): 3.018
- MYF5 myogenic gene expression fold change compared to FM (vehicle) (DM1 human myoblast; [3]): 0.730
- MYODI myogenic gene expression fold change compared to FM (vehicle) (DM1 human myoblast; [3]): 1.252
- MYOG myogenic gene expression fold change compared to FM (vehicle) (DM1 human myoblast; [3]): 2.972
- CKM expression fold change compared to vehicle (DM1 human myoblast; 96 h): 5.165
- MYH3 expression fold change compared to vehicle (DM1 human myoblast; 96 h): 14.833
